The values below come from ChEMBL document CHEMBL1156925, “Synthesis, structure-activity relationship and crystallographic studies of 3-substituted indolin-2-one RET inhibitors” (Bioorg Med Chem, 2010).

The nature of assay [1]: cells. To be noted: Mus musculus, BaPTC2.
For assay [2], the target named is T1, Receptor-type tyrosine-protein kinase FLT3 (Homo sapiens, UniProt P36888).
T1 sequence (P36888 whole entry): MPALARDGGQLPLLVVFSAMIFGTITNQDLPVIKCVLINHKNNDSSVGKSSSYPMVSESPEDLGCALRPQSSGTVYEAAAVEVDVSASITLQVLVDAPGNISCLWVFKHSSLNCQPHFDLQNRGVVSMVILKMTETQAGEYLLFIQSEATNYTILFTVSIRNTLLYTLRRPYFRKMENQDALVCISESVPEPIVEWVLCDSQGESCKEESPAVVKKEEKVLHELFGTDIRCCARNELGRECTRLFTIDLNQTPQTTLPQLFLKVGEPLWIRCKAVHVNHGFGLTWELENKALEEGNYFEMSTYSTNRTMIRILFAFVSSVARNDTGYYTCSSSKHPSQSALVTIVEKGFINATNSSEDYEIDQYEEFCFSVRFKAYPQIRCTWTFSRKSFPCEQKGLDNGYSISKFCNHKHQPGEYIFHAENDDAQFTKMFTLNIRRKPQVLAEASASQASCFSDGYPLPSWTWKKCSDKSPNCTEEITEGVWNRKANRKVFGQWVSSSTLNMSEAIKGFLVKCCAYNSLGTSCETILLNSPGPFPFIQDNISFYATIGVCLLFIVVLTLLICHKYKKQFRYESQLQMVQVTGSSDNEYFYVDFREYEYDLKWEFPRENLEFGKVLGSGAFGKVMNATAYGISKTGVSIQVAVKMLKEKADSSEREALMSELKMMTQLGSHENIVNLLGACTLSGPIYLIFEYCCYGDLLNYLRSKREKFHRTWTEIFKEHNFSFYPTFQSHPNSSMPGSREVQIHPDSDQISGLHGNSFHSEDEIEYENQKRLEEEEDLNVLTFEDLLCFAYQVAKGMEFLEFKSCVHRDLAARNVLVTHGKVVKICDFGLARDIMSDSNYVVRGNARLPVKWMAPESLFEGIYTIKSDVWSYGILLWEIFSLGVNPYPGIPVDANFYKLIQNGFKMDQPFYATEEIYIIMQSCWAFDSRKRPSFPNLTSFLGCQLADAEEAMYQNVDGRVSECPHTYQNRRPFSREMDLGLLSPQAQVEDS
Nature of the assay: Inhibition of FLT3 by ELISA-based kinase assay.

Assay [3] addresses Tyrosine-protein kinase ABL1 (Homo sapiens, UniProt P00519).
Assay [4] can be described thus: cells. To be noted: Mus musculus, BaF3.
Assay [5] has as its target ALK tyrosine kinase receptor (Homo sapiens, UniProt Q9UM73). As to the kind of experiment: Inhibition of ALK by ELISA-based kinase assay. (In general: ELISA stands for enzyme-linked immunosorbent assay.)

Broadly, the IC50 is the concentration needed to halve the response being measured.

ALK tyrosine kinase receptor, sequence (Q9UM73 whole entry): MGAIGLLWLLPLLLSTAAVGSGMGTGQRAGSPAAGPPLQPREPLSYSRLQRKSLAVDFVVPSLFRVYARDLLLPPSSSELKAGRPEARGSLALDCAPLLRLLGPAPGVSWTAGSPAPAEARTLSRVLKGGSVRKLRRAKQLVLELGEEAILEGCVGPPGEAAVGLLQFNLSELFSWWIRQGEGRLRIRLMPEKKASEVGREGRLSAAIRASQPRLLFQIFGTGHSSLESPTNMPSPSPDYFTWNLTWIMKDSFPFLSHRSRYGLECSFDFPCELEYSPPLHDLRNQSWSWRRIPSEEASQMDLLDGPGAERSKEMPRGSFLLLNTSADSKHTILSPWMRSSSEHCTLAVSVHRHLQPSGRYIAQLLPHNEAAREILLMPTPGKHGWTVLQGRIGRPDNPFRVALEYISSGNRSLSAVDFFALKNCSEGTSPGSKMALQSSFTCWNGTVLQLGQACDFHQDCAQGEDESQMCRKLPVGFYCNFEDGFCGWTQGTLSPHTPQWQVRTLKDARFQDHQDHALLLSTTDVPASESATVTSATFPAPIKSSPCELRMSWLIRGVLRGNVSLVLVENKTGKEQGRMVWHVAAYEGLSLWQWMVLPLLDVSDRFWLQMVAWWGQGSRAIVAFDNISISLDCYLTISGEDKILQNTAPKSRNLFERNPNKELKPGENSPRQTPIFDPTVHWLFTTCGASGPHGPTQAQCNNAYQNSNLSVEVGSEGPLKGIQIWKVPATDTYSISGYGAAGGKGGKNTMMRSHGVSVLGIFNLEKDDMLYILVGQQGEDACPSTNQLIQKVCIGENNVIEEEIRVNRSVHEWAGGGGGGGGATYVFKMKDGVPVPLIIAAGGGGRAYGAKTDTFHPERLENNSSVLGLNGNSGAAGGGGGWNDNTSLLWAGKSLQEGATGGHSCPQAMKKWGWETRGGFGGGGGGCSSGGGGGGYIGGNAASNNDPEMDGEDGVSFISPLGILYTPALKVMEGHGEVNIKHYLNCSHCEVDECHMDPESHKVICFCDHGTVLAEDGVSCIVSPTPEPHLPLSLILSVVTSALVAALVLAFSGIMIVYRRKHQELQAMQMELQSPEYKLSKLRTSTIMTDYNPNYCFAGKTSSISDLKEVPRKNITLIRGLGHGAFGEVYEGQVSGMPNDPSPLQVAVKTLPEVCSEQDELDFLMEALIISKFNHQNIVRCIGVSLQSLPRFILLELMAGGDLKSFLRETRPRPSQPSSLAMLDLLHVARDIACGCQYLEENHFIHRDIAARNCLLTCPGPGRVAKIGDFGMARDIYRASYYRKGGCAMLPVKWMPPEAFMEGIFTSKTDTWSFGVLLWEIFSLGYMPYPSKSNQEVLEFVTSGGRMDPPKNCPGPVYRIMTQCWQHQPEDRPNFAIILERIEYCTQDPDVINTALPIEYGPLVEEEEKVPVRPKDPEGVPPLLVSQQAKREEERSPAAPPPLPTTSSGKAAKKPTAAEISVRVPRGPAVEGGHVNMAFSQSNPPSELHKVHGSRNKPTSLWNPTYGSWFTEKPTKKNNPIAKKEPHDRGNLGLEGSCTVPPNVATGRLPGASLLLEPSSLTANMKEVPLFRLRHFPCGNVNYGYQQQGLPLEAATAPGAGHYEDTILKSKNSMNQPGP
Tyrosine-protein kinase ABL1, sequence (P00519 whole entry): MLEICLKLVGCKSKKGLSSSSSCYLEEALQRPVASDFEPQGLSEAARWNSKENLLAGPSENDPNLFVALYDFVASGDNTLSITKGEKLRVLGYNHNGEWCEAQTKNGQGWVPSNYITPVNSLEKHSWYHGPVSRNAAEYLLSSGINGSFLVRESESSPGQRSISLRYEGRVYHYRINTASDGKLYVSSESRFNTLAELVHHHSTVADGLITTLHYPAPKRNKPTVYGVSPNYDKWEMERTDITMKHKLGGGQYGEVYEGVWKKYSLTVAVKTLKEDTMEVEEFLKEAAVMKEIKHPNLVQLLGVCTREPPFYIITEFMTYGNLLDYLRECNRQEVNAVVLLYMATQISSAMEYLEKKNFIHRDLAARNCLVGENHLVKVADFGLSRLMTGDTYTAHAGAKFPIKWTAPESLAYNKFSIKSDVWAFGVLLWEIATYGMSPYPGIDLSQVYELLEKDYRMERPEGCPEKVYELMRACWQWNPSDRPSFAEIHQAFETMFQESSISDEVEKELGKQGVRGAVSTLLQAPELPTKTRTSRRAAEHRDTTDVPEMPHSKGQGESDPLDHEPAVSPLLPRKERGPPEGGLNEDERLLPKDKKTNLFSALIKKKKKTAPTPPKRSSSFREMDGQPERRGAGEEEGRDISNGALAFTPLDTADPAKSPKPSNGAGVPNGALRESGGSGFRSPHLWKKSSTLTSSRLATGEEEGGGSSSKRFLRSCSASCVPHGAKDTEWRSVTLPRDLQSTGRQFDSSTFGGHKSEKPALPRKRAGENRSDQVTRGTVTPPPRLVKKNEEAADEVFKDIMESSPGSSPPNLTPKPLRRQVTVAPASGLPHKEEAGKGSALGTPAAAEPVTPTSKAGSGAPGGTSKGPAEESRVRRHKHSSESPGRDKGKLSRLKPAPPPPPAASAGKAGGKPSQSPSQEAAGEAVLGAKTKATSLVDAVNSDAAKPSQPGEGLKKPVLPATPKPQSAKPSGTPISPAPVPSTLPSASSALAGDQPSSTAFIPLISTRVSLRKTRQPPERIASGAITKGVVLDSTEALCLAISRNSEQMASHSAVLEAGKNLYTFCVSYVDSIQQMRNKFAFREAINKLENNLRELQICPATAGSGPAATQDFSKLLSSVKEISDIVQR

In the case of `Cc1cccc2c1/C(=C/c1ccc(N(C)C)c3ccccc13)C(=O)N2`, the IC50 in assay [1] was 10 µM; in assay [2] it was 0.4 µM; in assay [3] it was more than 50 µM; in assay [4], 10 µM; in assay [5] it was more than 50 µM.

`CCOC(=O)c1c(C)[nH]c(/C=C2\C(=O)Nc3ccccc32)c1C`: the IC50 in assay [1] came to 0.025 µM; in assay [2], 4.3 µM; in assay [3] it was 19 µM; in assay [4] it was 2.6 µM; in assay [5], 5.4 µM.

With `CN(C)S(=O)(=O)c1ccc2c(c1)/C(=C/c1cc3c([nH]1)CCCC3)C(=O)N2`, the IC50 in assay [1] was 0.16 µM; in assay [2], 8.7 µM; in assay [3], more than 50 µM; in assay [4], 0.18 µM; in assay [5], 18 µM.

Turning to `O=C1Nc2ccccc2/C1=C\c1ccc(O)cc1`, the IC50 was 16 µM in assay [1]; 1.8 µM in assay [2]; more than 50 µM in assay [3]; more than 50 µM in assay [4]; more than 50 µM in assay [5].

For the compound `CCN(CC)CCNC(=O)c1c(C)[nH]c(/C=C2\C(=O)Nc3ccc(F)cc32)c1C` [SUNITINIB], the IC50 is 0.22 µM in assay [1] and 1.2 µM in assay [4].
